Test: xn = mol fraction of the nth substance listed
Details: 101 kPa

CCCC[n+]1ccn(C)c1.F[B-](F)(F)F + CNc1ccccc1
x2 = 0
Details	speed of sound [m/s]
293.15 K	1577.5
303.15 K	1553.1
313.15 K	1529.6
323.15 K	1506.8

CNc1ccccc1 + CCCC[n+]1ccn(C)c1.F[B-](F)(F)F
speed of sound [m/s]
Details	x1 = 0.0974	x1 = 0.2093	x1 = 0.2979	x1 = 0.3968	x1 = 0.5009	x1 = 0.592	x1 = 0.697	x1 = 0.7972	x1 = 0.8999	x1 = 1
293.15 K	1578.7	–	–	1584.9	–	1594.9	1602.1	1601.6	1594.2	1582.7
303.15 K	1554.2	–	–	1560.6	1562	1566.3	1571.4	1570	1559.5	–
313.15 K	–	1531.6	1532.2	1534.8	–	1537.9	1540.1	1537.7	1524.9	1511.6
323.15 K	1507.2	1507.9	1508.4	1509.7	1510.5	–	–	1504.7	–	1476.4

— a compilation of properties of binary mixtures (doi:10.1016/j.molliq.2016.05.033)
